We go through three molecules from publication PMC10135574, “N-Carbamoylputrescine Amidohydrolase of Bacteroides thetaiotaomicron, a Dominant Species of the Human Gut Microbiota” (Biomedicines, 2023).

For the experiment, the target named is T1, NCPAH-(His)6; N-carbamoylputrescine amidohydrolase (NCPAH) (Bacteroides thetaiotaomicron, UniProt Q8A9E0).
T1 construct: gene BT_0875; full-length, C-terminal His6 tag kept (pET23b NdeI/XhoI, plasmid pMSK106), expressed in E. coli BL21(DE3)
T1 sequence (Q8A9E0 1-294): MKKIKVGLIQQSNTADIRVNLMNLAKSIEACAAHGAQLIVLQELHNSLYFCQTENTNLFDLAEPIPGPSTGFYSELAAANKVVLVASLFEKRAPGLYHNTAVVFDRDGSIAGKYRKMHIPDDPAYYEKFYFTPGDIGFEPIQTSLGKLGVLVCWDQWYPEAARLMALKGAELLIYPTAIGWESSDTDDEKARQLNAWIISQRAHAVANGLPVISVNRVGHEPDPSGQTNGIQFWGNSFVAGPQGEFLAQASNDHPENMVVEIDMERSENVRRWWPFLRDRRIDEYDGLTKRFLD
Briefly: HPLC of putrescine formed. In kind it is biochemical. As to conditions: read-out: % inhibition at 1 mM.

For the molecule `N=C(N)NCCCCN` [agmatine], the inhibition at 1000 µM was greater than 80%.

`NCCCCN` [putrescine]: the inhibition at 1000 µM is roughly 50%.

`NCCCCNCCCN` [spermidine]: the inhibition at 1000 µM is greater than 80%.
